Measurements from patent US12319672B2, “Alpha-D-galactopyranoside derivatives” (Idorsia Pharmaceuticals Ltd, priority 2019, dated 2025).
Values belong to the molecule of their own block, whether it stands above or below them.

Key:
human Gal-3 (hGal-3) = human Gal-3 (hGal-3) (Homo sapiens (Human), UniProt P17931); assay: Competitive binding assay: binding of biotinylated hGal-3 to microplate-adsorbed asialofetuin (ASF); details: Activity on hGal-3; mean values of several measurements
Experimental: (§1) Evaluation of Compound Inhibitory Activity (IC50)
(§2) The inhibitory activity of compounds is determined in competitive binding assays. This spectrophotometric assay measures the binding of biotinylated human Gal-3 (hGal-3) or human Gal-1 (hGal-1), respectively, to a microplate-adsorbed glycoprotein, asialofetuin (ASF) (Proc Natl Acad Sci USA. 2013 Mar. 26; 110(13):5052-7.). Alternatively, and preferably, a human Gal-1 version in which all six cysteines are substituted by serines may be used.
(§3) Briefly, compounds are serially diluted in DMSO (working dilutions). ASF-coated 384 well plates are supplemented with 22.8 μL/well of biotinylated hGal-3 or hGal-1 in assay buffer (i.e. 300-1000 ng/mL biotinylated hGal-3 or hGal-1) to which 1.2 μL of compound working dilutions are added and mixed.
(§4) Plates are incubated for 3 hours at 4° C., then washed with cold assay buffer (3×50 uL), incubated for 1 hour with 25 μL/well of a streptavidin-peroxidase solution (diluted in assay buffer to 80 ng/mL) at 4° C., followed by further washing steps with assay buffer (3×50 uL). Finally, 25 μL/well of ABTS substrate is added.
(§5) The calculated IC50 values may fluctuate depending on the daily assay performance. Fluctuations of this kind are known to those skilled in the art. IC50 values from several measurements are given as mean values.

human Gal-1 (hGal-1) = assay: Competitive binding assay: binding of biotinylated hGal-1 to microplate-adsorbed asialofetuin (ASF); details: Activities on hGal-1; mean values of several measurements
human Gal-1 (hGal-1), sequence (P09382 2-135 limits assumed): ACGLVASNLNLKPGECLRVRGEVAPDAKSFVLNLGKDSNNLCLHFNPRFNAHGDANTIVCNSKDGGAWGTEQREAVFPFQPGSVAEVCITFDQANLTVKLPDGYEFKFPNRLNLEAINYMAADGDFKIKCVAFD
Experimental: as §1, §2, §3, §4, §5

human Gal-3 (hGal-3), sequence (P17931 whole entry): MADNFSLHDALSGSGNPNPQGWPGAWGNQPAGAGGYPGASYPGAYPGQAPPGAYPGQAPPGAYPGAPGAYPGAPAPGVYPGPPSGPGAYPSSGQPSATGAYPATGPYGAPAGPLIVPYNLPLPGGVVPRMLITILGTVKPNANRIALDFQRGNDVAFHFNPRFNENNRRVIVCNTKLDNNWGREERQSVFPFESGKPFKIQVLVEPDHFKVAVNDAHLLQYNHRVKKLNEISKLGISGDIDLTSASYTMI

Molecule: CO[C@@H]1[C@@H](n2cc(-c3ccc(C)c(F)c3F)nn2)[C@@H](O)[C@@H](CO)O[C@@H]1Cc1cc(C(C)c2ccccc2)no1 (some centres unmarked) [Ex 1.342]
IC50 (human Gal-3 (hGal-3)): 550 nM
IC50 (human Gal-1 (hGal-1)): 33000 nM

Molecule: CC(C)(C)c1cc(C[C@H]2O[C@H](CO)[C@H](O)[C@H](n3cc(-c4cc(F)c(F)c(F)c4)nn3)[C@H]2O)no1 [Ex 1.51]
IC50 (human Gal-3 (hGal-3)): 150 nM
IC50 (human Gal-1 (hGal-1)): 2500 nM

Molecule: CC(C)(C)OC(=O)N1CCC(C2=NOC(C[C@H]3O[C@H](CO)[C@H](O)[C@H](n4cc(-c5nc6ccccc6s5)nn4)[C@H]3O)C2)CC1 (some centres unmarked) [Ex 1.109]
IC50 (human Gal-3 (hGal-3)): 1600 nM
IC50 (human Gal-1 (hGal-1)): 210 nM

Molecule: OCc1cc(C[C@H]2O[C@H](CO)[C@H](O)[C@H](n3cc(-c4cc(F)c(F)c(F)c4)nn3)[C@H]2O)no1 [Ex 1.43]
IC50 (human Gal-3 (hGal-3)): 1900 nM
IC50 (human Gal-1 (hGal-1)): 15800 nM

Molecule: CO[C@@H]1[C@@H](n2cc(-c3ccc(C)c(F)c3F)nn2)[C@@H](O)[C@@H](CO)O[C@@H]1Cc1cc(C(C)(C)O)on1 [Ex 1.237]
IC50 (human Gal-3 (hGal-3)): 75 nM
IC50 (human Gal-1 (hGal-1)): 4220 nM

Molecule: CO[C@@H]1[C@@H](n2cc(-c3ccc(C)c(F)c3F)nn2)[C@@H](O)[C@@H](CO)O[C@@H]1Cc1cc(C2(CO)CC2)on1 [Ex 1.324]
IC50 (human Gal-3 (hGal-3)): 140 nM
IC50 (human Gal-1 (hGal-1)): 3570 nM

Molecule: CO[C@@H]1[C@@H](n2cc(-c3ccc(C)c(F)c3F)nn2)[C@@H](O)[C@@H](CO)O[C@@H]1Cc1cc(C2(O)CC2)on1 [Ex 1.319]
IC50 (human Gal-3 (hGal-3)): 140 nM
IC50 (human Gal-1 (hGal-1)): 7160 nM

Molecule: CO[C@@H]1[C@@H](n2cc(-c3ccc(Cl)c(F)c3)nn2)[C@@H](O)[C@@H](CO)O[C@@H]1Cc1cc(C2CCN(C(=O)OC(C)(C)C)CC2)no1 [Ex 1.124]
IC50 (human Gal-3 (hGal-3)): 31 nM
IC50 (human Gal-1 (hGal-1)): 800 nM

Molecule: CO[C@@H]1[C@@H](n2cc(-c3ccc(C)c(F)c3F)nn2)[C@@H](O)[C@@H](CO)O[C@@H]1Cc1cc(C(C)(C)C)on1 [Ex 1.195]
IC50 (human Gal-3 (hGal-3)): 60 nM
IC50 (human Gal-1 (hGal-1)): 3330 nM

Molecule: CO[C@@H]1[C@@H](n2cc(-c3ccc(Cl)c(F)c3F)nn2)[C@@H](O)[C@@H](CO)O[C@@H]1Cc1cc(C2CCN(S(C)(=O)=O)CC2)on1 [Ex 1.154]
IC50 (human Gal-3 (hGal-3)): 33 nM
IC50 (human Gal-1 (hGal-1)): 360 nM

Molecule: CO[C@@H]1[C@@H](n2cc(-c3cc(F)c(F)c(F)c3)nn2)[C@@H](O)[C@@H](CO)O[C@@H]1Cc1cc(C2(O)CCC(C)(C)CC2)on1 [Ex 1.82]
IC50 (human Gal-3 (hGal-3)): 1350 nM
IC50 (human Gal-1 (hGal-1)): 28400 nM

Molecule: CO[C@@H]1[C@@H](n2cc(-c3ccc(C#N)c(F)c3F)nn2)[C@@H](O)[C@@H](CO)O[C@@H]1Cc1cc(C(C)(C)C)on1 [Ex 1.267]
IC50 (human Gal-3 (hGal-3)): 160 nM
IC50 (human Gal-1 (hGal-1)): 6100 nM

Molecule: CO[C@@H]1[C@@H](n2cc(-c3cc(F)c(F)c(F)c3)nn2)[C@@H](O)[C@@H](CO)O[C@@H]1CC1CC(C(C)(C)C)=NO1 (some centres unmarked) [Ex 1.265]
IC50 (human Gal-3 (hGal-3)): 250 nM
IC50 (human Gal-1 (hGal-1)): 2580 nM

Next, values leading:

IC50 (human Gal-3 (hGal-3)): 230 nM
IC50 (human Gal-1 (hGal-1)): 3990 nM
Molecule: CC(=O)O[C@@H]1[C@@H](n2cc(-c3cc(F)c(F)c(F)c3)nn2)[C@@H](O)[C@@H](CO)O[C@@H]1CC1=NOC(C2CCN(C(C)=O)CC2)C1 (mixture of isomers) [Example 3.23, (2R,3R,4S,5R,6R)-2-(((RS)-5-(1-acetylpiperidin-4-yl)-4,5-dihydroisoxazol-3-yl)methyl)-5-hydroxy-6-(hydroxymethyl)-4-(4-(3,4,5-trifluorophenyl)-1H-1,2,3-triazol-1-yl)tetrahydro-2H-pyran-3-yl acetate]

IC50 (human Gal-3 (hGal-3)): 440 nM
IC50 (human Gal-1 (hGal-1)): 1510 nM
Molecule: CO[C@@H]1[C@@H](n2cc(-c3cc(F)c(F)c(F)c3)nn2)[C@@H](O)[C@@H](CO)O[C@@H]1Cc1cc(C2CCN(C(=O)[C@@H](N)C(C)C)CC2)on1 [Example 3.54, (S)-2-amino-1-(4-(3-(((2R,3R,4S,5R,6R)-5-hydroxy-6-(hydroxymethyl)-3-methoxy-4-(4-(3,4,5-trifluorophenyl)-1H-1,2,3-triazol-1-yl)tetrahydro-2H-pyran-2-yl)methyl)isoxazol-5-yl)piperidin-1-yl)-3-methylbutan-1-one]

IC50 (human Gal-3 (hGal-3)): 46 nM
IC50 (human Gal-1 (hGal-1)): 960 nM
Molecule: 1-(4-(3-(((2R,3R,4R,5R,6R)-3,5-dihydroxy-6-(hydroxymethyl)-4-(4-(3,4,5-trifluorophenyl)-1H-1,2,3-triazol-1-yl)tetrahydro-2H-pyran-2-yl)methyl)isoxazol-5-yl)piperidin-1-yl)ethan-1-one [Example 3.17]

IC50 (human Gal-3 (hGal-3)): 240 nM
IC50 (human Gal-1 (hGal-1)): 1850 nM
Molecule: CC(=O)N1CCC([C@@H]2CC(C[C@H]3O[C@H](CO)[C@H](O)[C@H](n4cc(-c5cc(F)c(F)c(F)c5)nn4)[C@H]3O)=NO2)CC1 [Example 3.20, 1-(4-((S)-3-(((2R,3R,4R,5R,6R)-3,5-dihydroxy-6-(hydroxymethyl)-4-(4-(3,4,5-trifluorophenyl)-1H-1,2,3-triazol-1-yl)tetrahydro-2H-pyran-2-yl)methyl)-4,5-dihydroisoxazol-5-yl)piperidin-1-yl)ethan-1-one]

IC50 (human Gal-3 (hGal-3)): 28 nM
IC50 (human Gal-1 (hGal-1)): 1870 nM
Molecule: CC(=O)O[C@@H]1[C@@H](n2cc(-c3cc(F)c(F)c(F)c3)nn2)[C@@H](O)[C@@H](CO)O[C@@H]1Cc1cc(C2CCN(C(C)=O)CC2)on1 [Example 3.22, (2R,3R,4S,5R,6R)-2-((5-(1-acetylpiperidin-4-yl)isoxazol-3-yl)methyl)-5-hydroxy-6-(hydroxymethyl)-4-(4-(3,4,5-trifluorophenyl)-1H-1,2,3-triazol-1-yl)tetrahydro-2H-pyran-3-yl acetate]

IC50 (human Gal-3 (hGal-3)): 150 nM
IC50 (human Gal-1 (hGal-1)): 1380 nM
Molecule: CC(=O)N1CCC(C2=NO[C@H](C[C@H]3O[C@H](CO)[C@H](O)[C@H](n4cc(-c5cc(F)c(F)c(F)c5)nn4)[C@H]3O)C2)CC1 [Example 3.11, 1-(4-((S)-5-(((2R,3R,4R,5R,6R)-3,5-dihydroxy-6-(hydroxymethyl)-4-(4-(3,4,5-trifluorophenyl)-1H-1,2,3-triazol-1-yl)tetrahydro-2H-pyran-2-yl)methyl)-4,5-dihydroisoxazol-3-yl)piperidin-1-yl)ethan-1-one]

IC50 (human Gal-3 (hGal-3)): 230 nM
IC50 (human Gal-1 (hGal-1)): 2960 nM
Molecule: CO[C@@H]1[C@@H](n2cc(-c3cc(F)c(F)c(F)c3)nn2)[C@@H](O)[C@@H](CO)O[C@@H]1Cc1cc(C2CCN(CC(C)C)CC2)on1 [Example 3.41, (2R,3R,4S,5R,6R)-2-(hydroxymethyl)-6-((5-(1-isobutylpiperidin-4-yl)isoxazol-3-yl)methyl)-5-methoxy-4-(4-(3,4,5-trifluorophenyl)-1H-1,2,3-triazol-1-yl)tetrahydro-2H-pyran-3-ol]

IC50 (human Gal-3 (hGal-3)): 85 nM
IC50 (human Gal-1 (hGal-1)): 1120 nM
Molecule: CO[C@@H]1[C@@H](n2cc(-c3cc(F)c(F)c(F)c3)nn2)[C@@H](O)[C@@H](CO)O[C@@H]1Cc1cn(C(C)(C)C)nn1 [Example 4.45, (2R,3R,4S,5R,6R)-6-((1-(tert-butyl)-1H-1,2,3-triazol-4-yl)methyl)-2-(hydroxymethyl)-5-methoxy-4-(4-(3,4,5-trifluorophenyl)-1H-1,2,3-triazol-1-yl)tetrahydro-2H-pyran-3-ol]

IC50 (human Gal-3 (hGal-3)): 140 nM
IC50 (human Gal-1 (hGal-1)): 2310 nM
Molecule: CO[C@@H]1[C@@H](n2cc(-c3cc(F)c(F)c(F)c3)nn2)[C@@H](O)[C@@H](CO)O[C@@H]1CC1CN(C2CCN(S(=O)(=O)C(F)(F)F)CC2)C(=O)O1 (mixture of isomers) [Example 5.20, (RS)-5-(((2R,3R,4S,5R,6R)-5-hydroxy-6-(hydroxymethyl)-3-methoxy-4-(4-(3,4,5-trifluorophenyl)-1H-1,2,3-triazol-1-yl)tetrahydro-2H-pyran-2-yl)methyl)-3-(1-((trifluoromethyl)sulfonyl)piperidin-4-yl)oxazolidin-2-one]
